Experimental data taken from ChEMBL document CHEMBL1131817, “Structure-based design of irreversible, tripeptidyl human rhinovirus 3C protease inhibitors containing N-methyl amino acids” (Bioorg Med Chem Lett, 1999).

Legend:
[1] = biological target: T1, Human rhinovirus A protease (Human rhinovirus sp.) (UniProt Q4U254); assay: Inhibitory activity against Human RhinoVirus serotype-14 3C Protease; assay type: functional; conditions: rhinovirus B14
T1 sequence (whole entry): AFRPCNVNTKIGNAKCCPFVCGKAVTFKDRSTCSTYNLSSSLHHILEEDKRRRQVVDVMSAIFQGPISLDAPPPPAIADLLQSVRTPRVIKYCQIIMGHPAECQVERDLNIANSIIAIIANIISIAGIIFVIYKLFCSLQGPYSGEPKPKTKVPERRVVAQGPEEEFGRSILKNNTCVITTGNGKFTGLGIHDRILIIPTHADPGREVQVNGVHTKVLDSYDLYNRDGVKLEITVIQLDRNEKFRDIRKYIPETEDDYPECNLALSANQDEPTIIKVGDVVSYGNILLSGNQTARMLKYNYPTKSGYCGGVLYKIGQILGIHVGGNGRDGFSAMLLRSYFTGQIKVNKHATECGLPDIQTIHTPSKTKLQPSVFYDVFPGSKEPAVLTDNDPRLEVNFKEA

[2] = system: Human rhinovirus sp.; assay: In vitro antiviral activity against HRV serotype-14; assay type: functional, organism-based
[3] = system: Human rhinovirus sp.; assay: Inhibitory activity against Human RhinoVirus serotype-14 3C Protease; NI means No inhibition to 50 uM; assay type: functional, organism-based

Compound CCOC(=O)/C=C/[C@H](CCC(N)=O)NC(=O)[C@H](Cc1ccccc1)N(C)C(=O)[C@H](CC(C)C)NC(=O)c1cc(C)on1 has a k obs / 1 [1] of 108000 M⁻¹ s⁻¹ and an EC50 [2] of 140 nM.
Work on CCOC(=O)/C=C/[C@H](CCC(N)=O)NC(=O)[C@H](Cc1ccccc1)NC(=O)[C@H](CC(C)C)N(C)C(=O)OCc1ccccc1 yielded a k obs / 1 [1] of 100 M⁻¹ s⁻¹.
With CCOC(=O)/C=C/[C@H](CCC(N)=O)N(C)C(=O)[C@H](Cc1ccccc1)NC(=O)[C@H](CC(C)C)NC(=O)OCc1ccccc1 the “k obs / 1” value [3] was “No inhibition”.
CCOC(=O)/C=C/[C@H](CCC(N)=O)NC(=O)[C@H](Cc1ccccc1)N(C)C(=O)[C@H](CC(C)C)NC(=O)OCc1ccccc1 was tested, and the k obs / 1 [1] was 5300 M⁻¹ s⁻¹ and the EC50 [2] was 1000 nM.
CCOC(=O)/C=C/[C@H](CCC(N)=O)NC(=O)[C@H](Cc1ccccc1)NC(=O)[C@H](CC(C)C)NC(=O)OCc1ccccc1 was tested, and the k obs / 1 [1] was 25000 M⁻¹ s⁻¹ and the EC50 [2] was 540 nM.
With CCOC(=O)/C=C/[C@H](CCC(N)=O)NC(=O)[C@H](Cc1ccc(F)cc1)N(C)C(=O)[C@H](Cc1c[nH]cn1)NC(=O)c1cc(C)on1 the k obs / 1 [1] was 66000 M⁻¹ s⁻¹ and the EC50 [2] was 1800 nM.
Work on CCOC(=O)/C=C/[C@H](CCC(N)=O)NC(=O)[C@H](Cc1ccccc1)N(C)C(=O)[C@@H](NC(=O)SC1CCCC1)C(C)C yielded a k obs / 1 [1] of 22500 M⁻¹ s⁻¹ and an EC50 [2] of 190 nM.
Work on CCOC(=O)/C=C/[C@H](CCC(N)=O)NC(=O)[C@H](Cc1ccccc1)N(C)C(=O)[C@H](CC(C)C)NC(=O)SC1CCCC1 yielded a k obs / 1 [1] of 17300 M⁻¹ s⁻¹ and an EC50 [2] of 320 nM.
Work on CCOC(=O)/C=C/[C@H](CCC(N)=O)NC(=O)[C@H](Cc1ccccc1)N(C)C(=O)[C@H](CSc1ccccc1)NC(=O)SC1CCCC1 yielded a k obs / 1 [1] of 36800 M⁻¹ s⁻¹ and an EC50 [2] of 540 nM.
For CCOC(=O)/C=C/[C@H](CCC(N)=O)NC(=O)[C@H](Cc1ccc(F)cc1)N(C)C(=O)[C@H](Cc1ccc2ccccc2c1)NC(=O)c1cc(C)on1, the k obs / 1 [1] was 144000 M⁻¹ s⁻¹ and the EC50 [2] was 160 nM.
With CCOC(=O)/C=C/[C@H](CCC(N)=O)NC(=O)[C@H](Cc1ccc(F)cc1)N(C)C(=O)[C@H](CC(C)C)NC(=O)c1cc(C)on1 the k obs / 1 [1] was 59300 M⁻¹ s⁻¹ and the EC50 [2] was 400 nM.
CCOC(=O)/C=C/[C@H](CCC(N)=O)NC(=O)[C@H](Cc1ccc(F)cc1)N(C)C(=O)[C@H](Cc1cccc2ccccc12)NC(=O)c1cc(C)on1 was tested, and the k obs / 1 [1] was 95800 M⁻¹ s⁻¹ and the EC50 [2] was 200 nM.
With CCOC(=O)/C=C/[C@H](C[C@@H]1CCCNC1=O)NC(=O)[C@H](Cc1ccc(F)cc1)N(C)C(=O)[C@H](CC(C)C)NC(=O)c1cc(C)on1 the k obs / 1 [1] was 610000 M⁻¹ s⁻¹ and the EC50 [2] was 30 nM.
